US9527858B2, “Compounds and compositions for use in phototherapy and in treatment of ocular neovascular disease and cancers” (Mallinckrodt LLC, priority 2009, dated 2016)

Legend:
endothelial cells = details: cited from earlier work
VEGF expression = details: cited from earlier work
[1] = cited from earlier work
[2] = Escalating dose study on mice; type: in vivo; details: intraperitoneal injection
Description: The MNTX1 dose was established using an escalating dose study on mice. An intraperitoneal injection dose of 150 mg/kg was chosen. For a dosage of 400 mg/kg, 2 of 2 died, for a dosage of 200 mg/kg, 1 of 4 died; and for a dosage of 150 mg/kg (300 μl of 10 mg/ml), 3 of 3 survived. Therefore, a dose of 150 mg/kg (Intraperitoneal injection, I.P.) was used for each administration in the following orthotopic pancreatic tumor growth inhibition experiments.

AsPC-1 cells = experiment: Comparative studies, orthotopic AsPC-1 pancreatic tumor in nude mice; type: in vivo; details: subQ close to the pancreas, one injection per day for 10 days, total dose 20 mg/mouse; sacrificed at day 24; FIG. 4
Description: (§1) In these experiments nude mice weighing approximately 25 grams were used. First, the tail of the pancreas was exposed through an abdominal incision. Then 1×10^6 AsPC-1 cells were injected into the pancreas. The pancreas was replaced in the peritoneal cavity and the incision was closed. A 3-5 mm diameter tumor developed in 10 days.
MNTX was dissolved at 40 mg/mL in phosphate buffered saline (PBS) and then formulated to 100 uL (50 uL drug and 50 uL PBS) and injected subQ close to the pancreas. One injection per day was given for 10 days. The total dose was therefore 20 mg/mouse. For control and comparison, experiments on mice that were 1) not treated, 2) treated with light alone, 3) treated with gemcitibine alone, and 4) treated with Avastin alone using essentially the same procedure as described above were performed. The mice were sacrificed at day 24 and tumor weight was determined.
FIG. 4 provides local tumor burden experimental results for comparative studies involving administration of MNTX, Avastin and Gemcitabine anti-tumor agents. Tumor weight (mg) is shown for tumor conditions of: no treatment (NT); treatment with light alone (light alone); treatment with Gemcitabine alone (GEM); treatment with Avastin alone (Avastin) and treatment with MNTX (MNTX).

AsPC-1 pancreatic cancer = experiment: Pancreatic tumor growth inhibition studies, orthotopic AsPC-1 pancreatic cancer; type: in vivo, nude mice; details: I.P. 150 mg/kg daily for 13 days, 10 animals, sacrificed on day 24; control PBS; FIG. 6
Description: In these experiments, the effect of a purified stereoisomer of MNTX on AsPC-1 pancreatic cancer was evaluated.
as §1, with “Nude” for “In these experiments nude”, “The” for “First, the”
MNTX1 was formulated at 10 mg/mL in PBS. The 150 mg/kg dose was accomplished by a […] injection of a 10 mg/mL stock solution. Injections were done daily for 13 days, and the 10 animals were subsequently sacrificed on day 24. Treatments start after 10 days of AsPC1 pancreatic tumor cell orthotopic implantation. After two more weeks, the mice are sacrificed and tumor weight is measured for the evaluation of tumor growth inhibition effects. For control, four mice were injected according to the above schedule with PBS only. They were also sacrificed on day 24. FIG. 5 provides a schematic illustrating the experimental design of the pancreatic tumor growth inhibition studies. I.P. treatments (150 mg MNTX1/kg/each injection, 300 μl of 10 mg/ml for each injection totally for 13 times, animal number=10).
FIG. 6 provides experimental results for the pancreatic tumor growth inhibition studies showing the effects of MNTX1 on AsPC-1 pancreatic cancer. […]

Molecule: C[N@+]1(CC2CC2)CC[C@]23c4c5ccc(O)c4O[C@H]2C(=O)CC[C@@]3(O)[C@H]1C5 [methylnaltrexone, reference compound]
- potentiation of the cytotoxic effect of 5-fluorouracil (endothelial cells): ~700 ×

Molecule: COc1ccc2cc3[n+](cc2c1OC)CCc1cc2c(cc1-3)OCO2 [berberine]
- inhibition of VEGF expression (VEGF expression): some inhibition

Molecule: α-interferon
- adverse effects ([1]; clinically tested for MD): high rate of adverse effects
- clinical efficacy for MD ([1]; clinically tested for MD): ineffective

Molecule: C[N@+]1(CC2CC2)CC[C@@]23c4c5ccc(O)c4CC1C2(O)CCC(=O)C3O5 (single isomer, unassigned; (-)) [MNTX, (−)-R-naltrexone methobromide]
- synergy with Avastin to inhibit VEGF expression (endothelial cells): synergistic
- synergy with 5-fluorouracil (endothelial cells; in endothelial cells): synergistic
- survived ([2]; dosage of 150 mg/kg (300 μl of 10 mg/ml)): 3 of 3
- died ([2]; dosage of 200 mg/kg): 1 of 4
- died ([2]; dosage of 400 mg/kg): 2 of 2
- tumor weight measured at sacrifice (AsPC-1 cells): measurably superior to the control, Gemcitabine and Avastin conditions
- tumor weight measured at sacrifice (AsPC-1 pancreatic cancer): measurably superior to the control

B1: Lucentis: humanized anti-VEGF antibody fragment that inhibits VEGF activity by competitive binding (antibody, chains of the INN, looked up, V domains shown)
VH: EVQLVESGGGLVQPGGSLRLSCAASGYDFTHYGMNWVRQAPGKGLEWVGWINTYTGEPTYAADFKRRFTFSLDTSKSTAYLQMNSLRAEDTAVYYCAKYPYYYGTSHWYFDVWGQGTLVTVSS
VL: DIQLTQSPSSLSASVGDRVTITCSASQDISNYLNWYQQKPGKAPKVLIYFTSSLHSGVPSRFSGSGSGTDFTLTISSLQPEDFATYYCQQYSTVPWTFGQGTKVEIK
modifications: Fab
- patients maintaining their baseline vision ([1]; wet macular degeneration, after 12 months of treatment): About 95%
